Data taken from patent US9408848B2, “Fluorescent CDK inhibitors for treatment of cancer” (Georgetown University, priority 2008, dated 2016).
Entries after “also recorded” stand apart in the source; their conditions may differ. Where two headings read alike, the source gives them in different places.

Columns and labels:
[1] = target: T1, CDK7/cyclinH/MATI (Homo sapiens, UniProt P50613); experiment: Kinase assay ([γ-33P]-ATP, histone H1); assay type: biochemical; settings: for inhibition at 0.1 µM: read-out: % inhibition of kinase activity, CDK7/cyclinH/MATI
T1 construct: purchased Millipore, Dundee, UK (screening service)
T1 sequence (P50613 whole entry): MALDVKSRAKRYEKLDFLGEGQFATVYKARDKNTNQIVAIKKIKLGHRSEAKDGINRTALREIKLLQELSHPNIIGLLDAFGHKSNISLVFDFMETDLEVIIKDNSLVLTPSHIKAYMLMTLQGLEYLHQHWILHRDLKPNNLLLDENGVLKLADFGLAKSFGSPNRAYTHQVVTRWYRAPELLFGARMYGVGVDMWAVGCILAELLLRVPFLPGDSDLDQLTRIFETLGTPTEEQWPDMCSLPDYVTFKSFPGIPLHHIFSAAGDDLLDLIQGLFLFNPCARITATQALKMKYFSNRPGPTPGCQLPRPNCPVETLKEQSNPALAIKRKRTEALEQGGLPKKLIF
T1 sequence (P51946 whole entry partner): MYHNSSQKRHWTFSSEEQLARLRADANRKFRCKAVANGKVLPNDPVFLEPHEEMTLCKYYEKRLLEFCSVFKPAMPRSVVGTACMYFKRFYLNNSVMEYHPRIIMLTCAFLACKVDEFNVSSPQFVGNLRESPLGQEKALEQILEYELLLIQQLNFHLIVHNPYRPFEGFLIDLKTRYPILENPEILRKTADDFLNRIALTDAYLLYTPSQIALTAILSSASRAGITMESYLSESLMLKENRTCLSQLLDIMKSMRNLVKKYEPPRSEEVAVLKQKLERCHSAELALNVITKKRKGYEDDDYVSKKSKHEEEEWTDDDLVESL
T1 sequence (P51948 whole entry partner): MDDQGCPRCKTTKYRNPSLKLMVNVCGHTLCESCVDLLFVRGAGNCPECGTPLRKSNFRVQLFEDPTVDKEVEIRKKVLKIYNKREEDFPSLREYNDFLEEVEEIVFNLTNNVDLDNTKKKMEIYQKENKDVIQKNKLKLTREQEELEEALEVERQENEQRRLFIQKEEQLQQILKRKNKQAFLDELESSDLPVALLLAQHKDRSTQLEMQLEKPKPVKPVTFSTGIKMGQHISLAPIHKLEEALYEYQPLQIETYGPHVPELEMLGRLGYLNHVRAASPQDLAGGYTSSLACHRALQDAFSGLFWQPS
Protocol: . The final reaction was carried out in a 25 μL solution. The respective kinases (at […] were incubated with 8 mM MOPS (pH 7.0), 0.2 mM EDTA, 0.1 mg/ml histone H1, 10 mM MgAcetate and [γ-33P-ATP] (specific activity approximately 500 cpm/pmol, concentration as required). The reaction was then initiated by the addition of the MgATP mix. The reaction was stopped after 40 min of incubation by adding 5 μL of a 3% phosphoric acid solution. 10 μL of the reaction was spotted onto a P30 filter mat and washed 3 times for 5 min in 75 mM phosphoric acid and one in methanol prior to drying and counted radioactivity by scintillation counting. […]. Table 1 summarizes the cytotoxic effects of VMY compounds and its controls on breast cancer cell line.
(§1) Kinase selectivity of compounds VMY-1-101 and VMY-1-103 were screened at Millipore, Dundee, UK. Briefly assays were performed with a Biomek 2000 Laboratory Automation Workstation in a 96-well format (Beckman instruments, Palo Alto, Calif., U.S.A) for 40 min at ambient temperature in 25 μL incubations using [γ-^33P]-ATP. In a final reaction volume of 25 μL corresponding CDK/cyclin (h) (5-10 mU) was incubated with 8 mM MOPS pH 7.0, 0.2 mM EDTA, 0.1 mg/mL histone H1, 10 mM MgAcetate and [γ-^33P-ATP](specific activity approx. 500 cpm/pmol, concentration as required). The reaction was initiated by the addition of the MgATP mix. After incubation for 40 min at room temperature, the reaction was stopped by the addition of 5 μL of a 3% phosphoric acid solution. From the reaction, 10 μL was spotted onto a P30 filtermat and washed three times for 5 minutes in 75 mM phosphoric acid and once in methanol prior to dying and scintillation counting.

[2] = test system: MDA-MB-231; experiment: Cell viability assay (WST-1); assay type: cell-based, human; settings: read-out: IC50 (concentration yielding 50% growth inhibition), MDA-MB-231, WST-1, 48 h
Protocol: (§2) (10%), 2 mM L-glutamine, and 50 μg/mL each of antibiotics, namely penicillin, streptomycin, and neomycin at 37° C. in a humidified incubator containing 5% CO2
(§3) Briefly human breast cancer cells were seeded into a 96-well plate at 3000 cells per well in DMEM containing 10% FBS. Following 24 hours attachment period, compounds were dissolved in DMSO and serially diluted in tissue culture media and added to the cells in triplicate, and incubated for 48 h at 37° C. Control cells were treated with equal amount of DMSO. After 48 h incubation, cell viability was measured by WST-1 assay according to the manufacturer's instructions (Roche). […] The formazan absorbance, which correlates to the number of living cells, was measured at 450 nm and 630 nm as reference filter using a microplate reader. (Ultramark, Microplate Imaging System, Bio-Rad). The IC50 was calculated from the graph of the log of the compound concentration versus the fraction of the surviving cells.

[3] = test system: MCF-7; experiment: Cell cycle analysis by flow cytometry (propidium iodide); assay type: cell-based, human; settings: for % G1 / % S / % Sub-G1: MCF-7, 24 hrs, 5 μM
Protocol: (§4) 5 μM concentrations were used for all drugs tested. The cells were exposed to the vehicle (DMSO) or […] of the CDK inhibitors for 24 hrs. The cell cycle distribution was then assessed using standard procedures.

[4] = test system: MDA-MB-231; experiment: as above; assay type: cell-based, human; settings: for % G1 / % S / % Sub-G1: MDA-MB-231, 24 hrs, 5 μM
Protocol: as §4

[5] = test system: CL 10.3; experiment: Effect on multidrug resistant cell lines, IC50 72 hours; assay type: cell-based; settings: for IC50: 72 h, CL 10.3, Breast (MDR); for activity in multidrug resistance cell line: MCF7 versus CL 10.3; for CL 10.3 IC50/MCF-7 IC50: ratio, 72 hours
Excerpt: (§5) The effect of VMY-1-103 on multidrug resistant cell lines was studied and compared with paclitaxel. Table 4 represents the IC50 of the compounds in the individual cell lines along with the ratio of the difference.

[6] = test system: MCF-7; experiment: as above; assay type: cell-based; settings: Homo sapiens, MCF7, 72 h; MCF-7, Breast
Excerpt: as §5

[7] = test system: phospho-Cdc2; experiment: Western blot of G2/M cell cycle proteins; assay type: cell-based, human; settings: MDA-MB-231, 10 μM, 1-24 h
Protocol: The expression levels principal component proteins, such as, phospho-Cdc2, Cdc2 and cyclin B were specific assessed.
Western blotting was performed according to literature procedure. […] Lysates were cleared by centrifugation at 12000 rpm for 15 min at 4° C. and protein was estimated by detergent compatible BCA protein assay kit (Pierce). Equivalent amounts of total proteins were resolved by SDS-PAGE (10%) and transferred to PVDF membrane. Membranes were blocked by 5% non-fat powdered milk in TBST overnight. Membranes were incubated with indicated primary antibodies for 2 hours followed by HRP-conjugated secondary antibodies for 1 hr and developed using enhanced chemiluminescence kit (Perkin Elmer).

[8] = test system: MDA-MB-231 cells; experiment: Apoptotic signaling, Western blot of apoptosis related proteins; assay type: cell-based, human
Protocol: In order to understand whether VMY-1-101 and VMY-1-103 compounds were able to induce apoptotic cell death, the expression of anti- and pro-apoptotic proteins in MDA-MB-231 cells following treatment with 10 μM drugs for 48 hours was evaluated first. […] This is further confirmed with proapoptotic 116 kDa poly (ADP-ribose) polymerase protein (PARP) into its 89-kDa fragments. […].
Western blotting was performed according to literature procedure. In brief, cell pellets were collected at the indicated times after treatment with compounds, suspended in 100 μL of lysis buffer (50 mM Tris-HCl, 150 mM NaCl, 1 mM EGTA, 1 mM EDTA, 20 mM NaF, 100 mM Na3VO4, 0.5% NP-40, 1% Triton X-100, 1 mM PMSF, 5 μg/ml aprotinin, 5 μg/ml leupeptin), vortexed twice and incubated in an ice bath for 30 min. Lysates were cleared by centrifugation at 12000 rpm for 15 min at 4° C. and protein was estimated by detergent compatible BCA protein assay kit (Pierce). Equivalent amounts of total proteins were resolved by SDS-PAGE (10%) and transferred to PVDF membrane. Membranes were blocked by 5% non-fat powdered milk in TBST overnight. Membranes were incubated with indicated primary antibodies for 2 hours followed by HRP-conjugated secondary antibodies for 1 hr and developed using enhanced chemiluminescence kit (Perkin Elmer).

[9] = target: T2, CDK1/cyclinB (Homo sapiens, UniProt P06493); experiment: Kinase assay ([γ-33P]-ATP, histone H1); assay type: biochemical; settings: 0.1 µM
T2 construct: purchased Millipore, Dundee, UK (screening service)
T2 sequence (P06493 whole entry): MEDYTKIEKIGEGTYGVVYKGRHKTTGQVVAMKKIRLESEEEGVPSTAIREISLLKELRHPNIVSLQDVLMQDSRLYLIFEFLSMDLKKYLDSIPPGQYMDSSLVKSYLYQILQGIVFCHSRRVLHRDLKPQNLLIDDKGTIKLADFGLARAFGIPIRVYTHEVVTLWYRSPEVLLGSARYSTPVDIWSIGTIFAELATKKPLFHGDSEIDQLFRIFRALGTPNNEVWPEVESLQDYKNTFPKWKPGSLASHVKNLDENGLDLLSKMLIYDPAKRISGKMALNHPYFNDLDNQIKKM
T2 sequence (P14635 whole entry partner): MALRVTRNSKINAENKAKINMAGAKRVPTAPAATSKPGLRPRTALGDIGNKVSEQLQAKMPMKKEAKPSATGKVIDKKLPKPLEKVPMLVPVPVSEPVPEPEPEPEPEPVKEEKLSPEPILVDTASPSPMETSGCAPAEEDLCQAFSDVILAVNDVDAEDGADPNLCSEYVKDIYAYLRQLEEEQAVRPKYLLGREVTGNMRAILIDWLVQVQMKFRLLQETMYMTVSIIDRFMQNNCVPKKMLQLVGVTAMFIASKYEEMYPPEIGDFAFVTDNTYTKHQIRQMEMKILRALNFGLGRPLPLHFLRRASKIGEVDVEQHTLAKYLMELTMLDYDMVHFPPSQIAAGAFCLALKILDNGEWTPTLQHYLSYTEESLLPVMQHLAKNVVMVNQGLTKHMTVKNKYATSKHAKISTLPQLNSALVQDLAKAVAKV
Protocol: (§6) The final reaction was carried out in a 25 μL solution.
as §1, with “Briefly” for “Kinase selectivity of compounds VMY-1-101 and VMY-1-103 were screened at Millipore, Dundee, UK. Briefly”, “solution.” for “solution. From the reaction, 10 μL was spotted onto a P30 filtermat and washed three times for 5 minutes in 75 mM phosphoric acid and once in methanol prior to dying and scintillation counting.”

[10] = target: T3, CDK3/cyclinE (Homo sapiens, UniProt Q00526); experiment: Kinase assay ([γ-33P]-ATP, histone H1); assay type: biochemical; settings: compound 0.1 μM
T3 construct: purchased Millipore, Dundee, UK (screening service)
T3 sequence (Q00526 whole entry): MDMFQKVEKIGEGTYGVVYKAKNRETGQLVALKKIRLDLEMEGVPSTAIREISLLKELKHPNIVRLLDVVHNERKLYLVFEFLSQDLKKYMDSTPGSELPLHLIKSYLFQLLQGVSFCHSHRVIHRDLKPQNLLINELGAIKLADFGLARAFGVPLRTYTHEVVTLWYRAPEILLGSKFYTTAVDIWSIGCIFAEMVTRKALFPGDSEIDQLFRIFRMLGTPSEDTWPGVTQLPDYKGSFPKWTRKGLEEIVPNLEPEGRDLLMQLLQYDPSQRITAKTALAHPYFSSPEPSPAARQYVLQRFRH
T3 sequence (P24864 whole entry partner): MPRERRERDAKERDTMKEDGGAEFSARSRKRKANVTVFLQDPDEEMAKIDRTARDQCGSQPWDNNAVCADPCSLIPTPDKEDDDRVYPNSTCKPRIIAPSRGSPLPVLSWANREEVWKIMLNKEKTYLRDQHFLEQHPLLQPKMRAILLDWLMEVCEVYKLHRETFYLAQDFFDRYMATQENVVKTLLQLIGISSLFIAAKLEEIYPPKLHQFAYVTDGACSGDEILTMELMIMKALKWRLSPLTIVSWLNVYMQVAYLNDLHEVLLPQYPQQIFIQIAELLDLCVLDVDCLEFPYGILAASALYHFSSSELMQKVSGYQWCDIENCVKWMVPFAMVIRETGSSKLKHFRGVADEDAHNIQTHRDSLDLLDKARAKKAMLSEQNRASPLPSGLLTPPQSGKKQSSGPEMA
Protocol: as §6
as §1, with “Briefly” for “Kinase selectivity of compounds VMY-1-101 and VMY-1-103 were screened at Millipore, Dundee, UK. Briefly”, “solution.” for “solution. From the reaction, 10 μL was spotted onto a P30 filtermat and washed three times for 5 minutes in 75 mM phosphoric acid and once in methanol prior to dying and scintillation counting.”

[11] = test system: MCF-7; experiment: Cell viability assay (WST-1); assay type: cell-based, human; settings: MCF-7, WST-1, 48 h
Protocol: as §2, §3

[12] = test system: MDA-MB-231 cells; experiment: Reversibility of antiproliferative effect (24 h/MC/48 h, cell cycle by flow cytometry); settings: MDA-MB-231, 5 μM and 10 μM, 24 h then 48 h drug free medium
Protocol: The cell cycle distribution was then analyzed by flow cytometry.
The effect of CDK inhibitors on cell cycle progression was analyzed by flow cytometry. […] Cells were trypsinized, centrifuged (2000 rpm) and cell pellets were collected. […] The cell cycle distribution was evaluated on DNA plots using the Modfit software (Verity softwarehouse, Topsham, Me.).

## CC(C)[C@H](CO)Nc1nc(Nc2ccc(C(=O)NCCNS(=O)(=O)c3cccc4c(N(C)C)cccc34)c(Cl)c2)c2ncn(C(C)C)c2n1 [VMY-1-103, 2-Chloro-N-[2-(5-dimethylamino-naphthalene-1-sulfonylamino)-ethyl]-4-[2-(1-hydroxymethyl-2-methyl-propylamino)-9-isopropyl-9H-purin-6-ylamino]-benzamide]
[1]; compound 0.1 μM
  inhibition at 0.1 µM: 69 ± 2%
[2]; Homo sapiens
  IC50: 4.06 ± 1.32 µM
[3]; MCF-7, 5, 10 μM, 24 hrs
  effect on cell cycle progression (G2/M phase): induced the cell cycle progression in G2/M phase
[3]
  % G1: 61.02 ± 0.28%
  % S: 16.26 ± 0.24%
  % Sub-G1: 2.09 ± 0.08%
[4]; MDA-MB-231, 5, 10 μM, 24 hrs
  effect on cell cycle progression (G2/M phase): induced the cell cycle progression in G2/M phase
[4]
  % G1: 51.87 ± 0.80%
  % S: 25.15 ± 0.53%
  % Sub-G1: 2.17 ± 0.18%
[5]
  IC50: 44.3 µM
  activity in multidrug resistance cell line: moderate activity in a multidrug resistance cell line
  CL 10.3 IC50/MCF-7 IC50: 9.8
[5]; listed as VMY-103
  activity in multidrug resistance cell line: comparable activity in both cell lines
[5]; inferred from MDR cell line (Table 4)
  substrate for p-glycoprotein: not a substrate for p-glycoprotein
[6]
  IC50: 4.5 µM
[7]
  expression of phospho-Cdc2 (T161, Y15): decrease the phosphorylation level of G2/M checkpoint proteins; also recorded: time-dependent decrease in expression of phospho-Cdc2
[8]; MDA-MB-231, 10 μM, 48 hours
  PARP cleavage: moderate cleavage of the 116-kDa full length PARP into an 89-kDa fragment
  protein level of full length caspase 3 and 7: decrease in protein level of full length caspase 3 and 7

## CC(=O)O[C@H]1C(=O)[C@@]2(C)[C@H]([C@H](OC(=O)c3ccccc3)[C@]3(O)C[C@H](OC(=O)[C@H](O)[C@@H](NC(=O)c4ccccc4)c4ccccc4)C(C)=C1C3(C)C)[C@]1(OC(C)=O)CO[C@@H]1C[C@@H]2O [Paclitaxel, reference compound]
[5]
  IC50: 47.5 µM
  CL 10.3 IC50/MCF-7 IC50: 2375
[6]
  IC50: 0.002 µM

## CC(C)[C@H](CO)Nc1nc(Nc2ccc(C(=O)O)c(Cl)c2)c2ncn(C(C)C)c2n1 [Purvalanol B, reference compound]
[9]
  % inhibition of kinase activity, CDK1/cyclinB: 78 ± 6%
[10]
  % inhibition of kinase activity, CDK3/cyclinE: 89 ± 0%
[1]; compound 0.1 μM
  % inhibition of kinase activity, CDK7/cyclinH/MATI: 66 ± 1%
[11]; read-out: IC50 (concentration yielding 50% growth inhibition)
  IC50: > 100 µM
[2]
  IC50: > 100 µM
[3]
  % G1: 64.37 ± 0.57%
  % S: 20.54 ± 0.57%
  % Sub-G1: 1.10 ± 0.03%
[4]
  % G1: 58.69 ± 0.54%
  % S: 29.86 ± 0.70%
  % Sub-G1: 1.19 ± 0.01%
[7]
  expression of phospho-Cdc2 (T161, Y15): no affect on the phospho-Cdc2 expression; also recorded: does not show any affect on expression of phosphor-Cdc2

## CN(C)c1cccc2c(S(=O)(=O)NCCN)cccc12 [Dansyl ethylenediamine, reference compound]
[11]; Homo sapiens, MCF7, read-out: IC50 (concentration yielding 50% growth inhibition)
  IC50: > 100 µM
[2]; Homo sapiens
  IC50: > 100 µM

## CC[C@H](CO)Nc1nc(NCc2ccccc2)c2ncn(C(C)C)c2n1 [Roscovitine, 2-(R)-(1-ethyl-2-hydroxyethylamino)-6-benzylamino-9-isopropylpurine, reference compound]
[1]
  inhibition at 0.1 µM: 26 ± 5%
[3]
  % G1: 63.83 ± 0.58%
  % S: 19.88 ± 0.74%
  % Sub-G1: 0.73 ± 0.02%
[4]
  % G1: 57.59 ± 0.44%
  % S: 26.29 ± 0.32%
  % Sub-G1: 1.22 ± 0.06%
[8]; MDA-MB-231, even at 40 μM
  change in apoptosis protein levels: no change in protein levels
[12]
  reversibility of G2/M arrest / antiproliferative effect: went back to the normal stage after post incubation
